Measurements as given in a melting point compilation (Tetko et al.; mined from patent text by program, amines drawn as free bases though some values may be those of a salt).

| melting point [°C] | Structure (SMILES) |
| --- | --- |
| 278 to 280 | O=c1c2c(Cc3ccccc3O)n[nH]c2c2cccnc2n1-c1ccccc1 |
| 110 | CON=CCNC(=O)c1c(I)cccc1C(=O)Nc1ccc(C(F)(F)C(F)(F)F)cc1C |
| 143 to 144 | COC(=O)c1ccc2nc(C(F)(F)F)c(S(C)(=O)=O)nc2c1 |
| 93 to 95 | OC(CCC1CCN(Cc2ccccc2)CC1)c1ccc(N2CCCC2)cc1 (stereo not drawn) |
| 190 to 192 | O=C(O)c1cc(NC(=O)C(CS)Cc2ccccc2)ccc1Cl (stereo not drawn) |
| 124 to 126 | O=c1n(CCO)c2ccccc2n1-c1ccc(F)cc1 |
| 112 | O=c1[nH]c(=O)n(C2CC(F)C(CO)O2)cc1C(I)=CI (stereo not drawn) |
| 95 to 96 | CC(C)(C)OC(=O)N1CCC[C@H](O)[C@@H]1c1ccc(Cl)cc1 (relative stereo) |
| 38.1 | CCCCCc1ccc(-c2ccc(C(C)OC(=O)CCC)cc2)cc1 (single isomer, unassigned; (+)) |
| 178 to 179 | COc1ccc(S(=O)(=O)n2ccc3ccnc(-c4ccc([N+](=O)[O-])cc4)c32)cc1 |
| 180 | O=C(O)C1CCc2cc([N+](=O)[O-])ccc2O1 (stereo not drawn) |
| 216 to 218 | COCC(O)c1nc2c(C(F)(F)F)cccc2c(O)c1C(=O)Nc1nccs1 (stereo not drawn) |
| 116 | COc1nc(C)c2c(c1C#N)CCCC2 |
| 178 to 179 | CC[C@H](C)[C@H](NC(=O)OC(C)(C)C)C(=O)N[C@H](C(=O)N[C@@H](CC1CCCCC1)[C@@H](O)[C@@H](O)CC(C)C)[C@@H](C)CC |
| 172 to 178 | NC(CSSCCCN1C(=O)NCC1c1ccccc1)C(=O)O (stereo not drawn) |
| > 250 | CCc1nc2c(N)nc3cccnc3c2n1CC1(O)CCOCC1 |
| 106 to 107 | CCOc1cc(OCCCc2cn(-c3ccc(C(F)(F)F)cn3)nc2OCc2ccccc2)ccc1CCC(=O)O |
| 124 to 125 | CC(C)(O)c1ccc(CNC(=O)c2cccnc2Oc2ccc3nsnc3c2)c(F)c1 |
| 126 to 128 | COc1ccc(N2CCN(c3c(C)c(C)c4c(c3C)C(c3ccccc3)C(C)(C)O4)CC2)cc1 (stereo not drawn) |
| 177 to 178 | O=C1Cc2cc3c(CCC4CCN(Cc5ccc(Br)cc5)CC4)noc3cc2N1 |
| 191 to 193 | CS(=O)(=O)n1cnc2cc(Cl)c(Cl)cc21 |
| 60 to 64 | O=C([C@H](Cc1ccccc1)NC1CCCCC1)N1CCN(C(c2ccc(F)cc2)c2ccc(F)cc2)CC1 |
| 196 to 199 | Clc1cccc(Nc2nc(OCC3CCCCC3)c3[nH]cnc3n2)c1 |
| 202 to 204 | Cc1nc2ccc(N3CCN[C@H](C)C3)nn2c1-c1ccnc2[nH]ccc12 |

| melting point [°C] | Structure (SMILES) |
| --- | --- |
| 160 to 162 | OC[C@H]1OC[C@@H](n2cnc3cc(Cl)c(Cl)cc32)[C@H](O)[C@@H]1O |
| 120 | CCC(=O)Nc1ccccc1C(=O)O |
| 183 to 184 | CNC(=O)C1=CC2(CCOCC2)Oc2ccc([N+](=O)[O-])cc21 |
| 120 to 121 | COc1ccc2c(c1)C(C)(CC(=O)O)C(=O)N2C (stereo not drawn) |
| 272 to 273 | O=C(Nc1ccc(C(=O)N2CCCC(=NO)c3ccccc32)cc1)c1cc(Cl)cc(Cl)c1 |
| 136 to 138 | CC(C)(CCCC(=O)O)c1ccc(O)c(C(=O)O)c1 |
| 219 to 220 | O=C(O)c1cn(C2CC2)c2c(F)c(N3CCNC(CF)C3)c(F)c(F)c2c1=O (stereo not drawn) |
| 155 to 160 | CC(C)(C)OC(=O)NC1CCN(CC23CC(c4ccccc42)c2ccccc23)CC1 |
| 62 to 63 | CCOC(=O)CCCOc1ccc2c(c1)C(=O)CCC2 |
| 147 to 148 | CCCCn1c(=O)c(C(=O)OCC)c(O)c2ccccc21 |
| 115 to 117 | CC(C)(C)C(=O)SC[C@H](NC(=O)C(C)(C)S)C(=O)O |
| > 300 | Cc1ncc([N+](=O)[O-])n1-c1nccc2[nH]c(=O)ccc12 |
| 186 to 187 | Nc1ccc(S(=O)(=O)c2ccnc(N3CCCC3)c2)cc1 |
| 169 | Cc1cc(COc2ccc(C(=O)NC[C@](O)(C(N)=O)N3CCN(Cc4ccccc4)CC3)cc2)c2ccccc2n1 |
| 129 to 130 | O=[N+]([O-])c1ccc(-c2cc(Br)sc2-c2ccc(F)cc2)cc1 |
| 38 to 40 | CSc1nn(-c2c(Cl)cc(C(F)(F)F)cc2Cl)nc1C |
| 98 | O=C(Nc1ccc(F)cc1)c1cccc(Cl)n1 |
| 127 to 129 | CCOc1ccc(C2=NN(C3CCOCC3)C(=O)[C@H]3CC=CC[C@@H]23)cc1OCC (relative stereo) |
| 121 to 122 | COC(=O)CCC(=O)c1ccc(-c2ccc(C)cc2)cc1 |
| 202 | CC1C(c2ccccc2)NC(=S)N1O (stereo not drawn) |
| 221 | C#Cc1cnc(OCCC)c(-c2nc3c(CC)n(C4CCN(C(=O)OC(C)(C)C)CC4)nc3c(=O)[nH]2)c1 |
| 83 to 85 | CS(=O)(=O)OCCc1ccc([N+](=O)[O-])cc1COS(C)(=O)=O |
| 141 to 142 | CC(C)n1c2cc(Cl)ccc2c2oc(C(=O)Cl)cc21 |
| 159 to 170 | COc1nc(N2C(=O)C3CCCCN3C2=O)c(F)cc1C#N (stereo not drawn) |

| melting point [°C] | Structure (SMILES) |
| --- | --- |
| 183 to 185 | O=C(NCCN1CCN(c2cccc3c2OCC(CO)O3)CC1)c1ccc(F)cc1 (stereo not drawn) |
| 310 to 312 | CC1(C)C(=O)Nc2cc3[nH]c(-c4cncnc4)nc3cc21 |
| 136 to 140 | CCOc1nc(Cl)nc2cscc12 |
| 245 to 247 | NC(=O)[C@H](CO)NC(=O)c1cccc(NS(=O)(=O)CC2CN(C(c3ccc(Cl)cc3)c3ccc(Cl)cc3)C2)c1 |
| 160 to 162 | O=C(c1ccccc1)c1ccc2nc(-c3c[nH]c(C(=O)N4CCCC4)c3)[nH]c2c1 |
| 165 to 167 | C=Cc1cc(CNC(=O)NCc2ccc(C(C)(C)C)cc2)cc(Cl)c1NS(C)(=O)=O |
| 170 | Cc1ccc(S(=O)(=O)Nc2cc(CC(C)C)c([N+](=O)[O-])cc2Br)cc1 |
| 135 to 137 | CC(C)Cn1c(=O)n(C)c(=O)c2c1ncn2CCCO |
| 176 to 178 | NC1CCCN(C(=O)c2ccc(NC(=O)c3ccccc3Cl)cc2)c2ccccc21 (stereo not drawn) |
| 72 | Cc1cc(Cl)nc(S(C)(=O)=O)n1 |
| 128 to 129 | C=CCN(C(C)c1ccccc1)S(=O)(=O)c1ccc(O)cc1 (stereo not drawn) |
| 83 to 85 | CC(C)(C)n1nnc(-c2ccccc2-c2cccc3ccccc23)n1 |
| 46 to 50 | COC(=O)COc1ccc(C(=O)C(C)(C)Br)cc1 |
| 168 to 170 | CC(=O)NC[C@H]1CN(c2ccc(N3CCC(n4cc(C=O)nn4)CC3)c(F)c2)C(=O)O1 |
| 256 to 257 | Cc1c(-c2ccncc2)[nH]c2c1C(=O)CC(c1ccccc1)C2 (stereo not drawn) |
| 88 to 89 | COc1ccc(CCCC(=O)CCC(=O)O)cc1 |
| 222 to 225 | Cn1c(CCc2ccc(C#N)cc2)nc2cc(NS(=O)(=O)c3ccccc3)ccc21 |
| 199 to 200 | NC(=O)C1CCc2[nH]c3cc(Cl)c(Cl)cc3c2C1 (stereo not drawn) |
| 209 to 210 | COC(=O)c1sc(C)c(C#N)c1N |
| 190 to 193 | CONCc1nc2c(N)nc3cc(OCc4ccccc4)ccc3c2n1CC1CCOCC1 |
| 122 to 131 | COc1ccc2c(Cl)cc(-c3ccc(Cl)c(Cl)c3)nc2c1 |
| 150 to 160 | Cc1cc(-n2ccc(=O)[nH]c2=O)cc(Cl)c1Sc1ccc(Cl)cc1 |
| 198 to 200 | O=C1NCCN1c1ccc(S(=O)(=O)Nc2ccc(OC(F)F)cc2)cc1 |
| 228 to 230 | CCn1cc(C(=O)O)c(=O)c2cc(F)c(N3CCN(C)CC3)nc21 |

| melting point [°C] | Structure (SMILES) |
| --- | --- |
| 184 to 188 | CCc1nn2ccccc2c1NC(C)=O |
| 218 to 219 | CCCCN(CCCC)c1ccc(C=Cc2ccc(C=CC3=C(C#N)C(=C(C#N)C#N)OC3(C)C)s2)c(O[Si](c2ccccc2)(c2ccccc2)C(C)(C)C)c1 |
| 76 to 80 | COc1cc(C[C@H](NC(=O)OC(C)(C)C)C(=O)O)cc(OC)c1OC |
| 180 to 182 | COc1cc(OC)nc(NC(=O)NS(=O)(=O)Cc2ccccc2S(C)(=O)=O)n1 |
| 157 | c1ccc(NC2(c3ccccc3)N=C(c3ccccc3)N=C2c2ccccc2)cc1 (stereo not drawn) |
| 159 to 162 | CCCC1=C(C(=O)OCC)C(c2cccc(F)c2C)c2c[nH]nc2N1 (stereo not drawn) |
| 106 | CCCCNC(=O)N(C)c1cccc(-c2ccc(C=C(OC)C(=O)O)cc2OCCCC)c1 |
| 95 | OCc1cc(-c2ccc(Cl)c(Cl)c2)n(Cc2cccc(Cl)c2)n1 |
| 183 to 184 | CSc1nc(-c2ccc(Cl)cc2)c(CCC(=O)O)o1 |
| 235 to 237 | Cc1oc2c(C)cc(C(=O)O)cc2c1C |
| 108 to 110 | CC(C)(C)OC(=O)C1CCCN(CO)c2c1cc(OCc1ccccc1)c1ccccc21 (stereo not drawn) |
| 139 to 140 | CCOC(=O)c1c(C)nc2c(c1N)c1ccccc1n2Cc1ccccc1 |
| 141 to 143 | S=C(Cc1ccc2c(c1)CCO2)N1CCOCC1 |
| 276 to 278 | O=C(OCc1ccccc1)N1CCC(c2[nH]c(=O)c3ccccc3c2-c2ccccc2)CC1 |
| 85 to 90 | O=C1NCCN1C1CCN(CCC2COc3cc(Cl)c(Cl)cc3O2)CC1 (stereo not drawn) |
| 202 to 204 | O=S(=O)(NC1CCCCC1)c1ccc(Nc2nccc(Cl)n2)cc1 |
| 149 to 152 | COC(=O)CCc1ccc(N2CCCN(c3ccc(C#N)cc3)C2=O)cc1 |
| 208 to 210 | O=C(O)c1ccc(/C=C/c2ccccc2-c2cccs2)cc1 |
| 120 | O=C(Cl)c1cc2ccccc2[nH]1 |
| 128 to 130 | O=C(CCCCCNCc1cc2nc(-c3cccc4[nH]ncc34)nc(N3CCOCC3)c2s1)NO |
| 250 to 253 | COc1cccc2c1nc(C(F)F)n2-c1nc(Nc2ccc(N(C)S(C)(=O)=O)nc2)nc(N2CCOCC2)n1 |

| Structure (SMILES) | melting point [°C] |
| --- | --- |
| CN1CCN(c2ccccc2CO)[C@@H]2c3ccccc3C[C@H]21 (relative stereo) | 166 to 167 |
| CN1Cc2c(CO)ncn2-c2ccc(F)cc2C1=O | 221 to 223 |
| Cc1c(NC(=O)N2C[C@H](O[Si](C)(C)C(C)(C)C)C[C@H]2CO)ccc(C#N)c1Cl | 169 to 171 |
| N#Cc1cccc(N2C(=O)CC(=O)Nc3c2ccc2c3CCC2)c1 | 250 to 251 |
| Cc1nc(-c2ccc(CCC3(O)CN4CCC3CC4)cc2)no1 (stereo not drawn) | 165 to 167 |
